The numbers were not newly measured in publication PMC12281475, “Mediator Kinase Inhibitor Selectivity and Activity in Colorectal Cancer” (ACS Chemical Biology, 2025), which cites them from elsewhere.

Each structure is given as a SMILES string.

The subject of the data set is CDK8. Further details: method as in numbers not given. Conditions: reporter displacement assay; previously characterized compounds, no method in this paper; ref numbers not given; read-out: IC50 for in vitro CDK8 binding; cited from earlier work.

Turning to `Cc1n[nH]c2ncc(C(=O)N3CCC[C@@H]3c3ccc(Cl)cc3)cc12` [MSC2530819], the concentration for half-maximal inhibition (IC50) was 590 nM.

In general, IC50 refers to the midpoint of a concentration-inhibition curve.
